Measured values: BindingDB's records for doi:10.1007/pl00005326 (Schering-Plough Research Institute, 1999)

target: T1, Adenosine receptor A3 (Homo sapiens, UniProt P0DMS8)
T1 sequence (P0DMS8 whole entry): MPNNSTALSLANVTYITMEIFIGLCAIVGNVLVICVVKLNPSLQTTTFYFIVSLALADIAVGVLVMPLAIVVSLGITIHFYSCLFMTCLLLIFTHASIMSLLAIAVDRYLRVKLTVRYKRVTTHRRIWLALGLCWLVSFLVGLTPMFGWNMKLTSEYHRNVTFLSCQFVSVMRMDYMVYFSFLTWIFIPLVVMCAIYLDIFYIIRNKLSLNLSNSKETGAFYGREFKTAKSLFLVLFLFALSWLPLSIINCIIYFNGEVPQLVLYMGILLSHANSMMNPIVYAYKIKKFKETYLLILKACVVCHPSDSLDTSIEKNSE

| SMILES | Ki [µM] |
| --- | --- |
| Nc1nc2ccc(Cl)cc2c2nc(-c3ccco3)nn12 | 0.095 |
| Nc1nc2c(cnn2CCc2ccccc2)c2nc(-c3ccco3)nn12 | > 10 |
| Nc1nc(NCCc2ccc(O)cc2)nc2nc(-c3ccco3)nn12 | > 10 |
